# Measured values: patent publication US9446019B2, “Sparstolonin B based pharmaceutical agent for neuroblastoma treatment” (University of South Carolina, priority 2013, dated 2016)
# What was measured:
# SH-SY5Y tumors = format: in vivo
# Description: Six-week-old female homozygous athymic nude mice (nu/nu; strain-Crl:NU-Foxn1nu) were purchased from Charles River Laboratories (Wilmington, Mass.), and housed in the University of South Carolina Animal Research Facility. All animal experiments were carried out in compliance with the National Institute of Health (NIH) guidelines and were approved by the Institutional Animal Care and Use Committee (IACUC) of the University of South Carolina. The animals were maintained at 25° C. with a 12-h light/12-h dark cycle in laminar flow cabinets under specific pathogen-free conditions and given sterile water and food ad libitum.
# A neuroblastoma xenograft mice model using SH-SY5Y cells was used. To develop localized subcutaneous tumors, 2×10^7 SH-SY5Y cells were mixed 1:1 with matrigel (BD biosciences, San Jose, Calif.) to make 0.1 ml total volume, and cells were injected subcutaneously into the flank region of mice using sterile 27-gauge needle. The animal weight and general appearance were recorded regularly throughout the experiments. On every third day, tumor size was measured with calipers and tumor volume was calculated using the ellipsoid formula (length×width×height×0.5).
# Tumor-bearing mice were divided into two groups—(i) control without SsnB treatment, n=4; and (ii) experimental with SsnB treatment (10 mg/kg body weight per mice), n=4. […]
# Paraformaldehyde-fixed paraffin-embedded tumor sections (5 μm thick) were deparaffinized in xylene and rehydrated with sequential immersion in graded ethanol (100%, 95%, 85%, 70% and 50%). […] Primary antibodies were detected with secondary antibodies conjugated with fluorescein isothiocyanate (FITC) (1:4000 dilution in 5% IgG-free BSA/PBS) for 2 h at room temperature. After washing with 1×PBS for 4 times (10 min for each washing), sections were mounted with antifade Vectashield mounting media (Vector Laboratories, Burlingame, Calif.), and signals were visualized under Nikon-E600 fluorescence microscope (Nikon, Tokyo, Japan). […]
# [1] = tested on: reactive oxygen species in neuroblastoma cells; experiment: ROS generation, H2DCFDA fluorometry assay; format: cell-based, human
# Description: The production of reactive oxygen species (ROS) in SsnB-treated neuroblastoma cells was detected by a cell-permeable fluorescence probe H2DCFDA (carboxy-2′,7′-dichlorodihydrofluorescein diacetate) according to the manufacturer's instructions (Invitrogen, Carlsbad, Calif.). Briefly, neuroblastoma cells were cultured in DMEM with 10% FBS in Lab-TekII chamber slides (Fisher Scientific, Pittsburg, Pa.) and treated with SsnB for 2 days (SH-SY5Y and IMR-32 cells), 3 days (NGP cell) or 4 days (SKNF-1 and SK-N-BE(2) cells). After treatments, cells were washed with Hank's buffered salt solution (HBSS; Thermo Scientific, Waltham, Mass.) and incubated with 25 μM of carboxy-H2DCFDA dye for 30 min at 37° C. in dark. Nuclei were counterstained with DAPI. Cells were washed three times with HBSS, mounted with Vectashield mounting medium (Vector Laboratories), and immediately examined under Nikon-E600 fluorescence microscopy equipped with fluorescein isothiocyanate (FITC) filter. Oxidation of H2DCFDA probe occurs almost exclusively in the cytosol, and generates a fluorescence that is proportional to ROS generation in that cell. As a negative control, cells without H2DCFDA dye were used to detect autofluorescence. The fluorometric analysis to detect generation of ROS was performed. Briefly, after treatments with SsnB as mentioned above, cells were labeled with carboxy-H2DCFDA dye (25 μM) for 30 min at 37° C. Cells were trypsinized, washed, and re-suspended in PBS and fluorescence intensity was monitored at excitation wavelength 485 nm and emission wavelength 530 nm with a spectramax spectrophotometer (Molecular Devices, Sunnyvale, Calif.).
# SsnB-induced generation of ROS was also evaluated by fluorometry assay. Neuroblastoma cells as treated above were incubated with H2DCFDA dye for 30 min and the fluorescence intensity was measured at 485 nm (excitation wavelength) and 530 nm (emission wavelength).
structure (smiles),measurement,setting,value
"O=c1occ2c3c(ccc(O)c13)Oc1ccc(O)cc1-2 [SsnB, 8,5′-dihydroxy-4-phenyl-5,2′-oxidoisocoumarin]",average tumor volume,"SH-SY5Y tumors; 10 mg/kg body weight daily intraperitoneal, 15 days, control 883.75±68.23 mm^3",146.5±14.08 mm^3
same,cleaved caspase-3 signals in tumors,"SH-SY5Y tumors; 10 mg/kg, immunohistochemistry, p<0.05 vs control",significantly detected
same,TUNEL positive cells in tumors,"SH-SY5Y tumors; 10 mg/kg, p<0.05 vs control",increased the number of TUNEL positive cells
same,H2DCFDA fluorescence intensity vs DMSO,"[1]; SsnB 1 μM, nonsignificant",almost similar
same,H2DCFDA fluorescence intensity vs DMSO,"[1]; SsnB 10 μM, p<0.05",significantly increased
